Where only a bound is given, the exact number is not on record here.

The source of these data is patent US7951810B2, “Substituted pyrrolo[2,3-d]pyrimidines as inhibitors of E1 activating enzymes” (Millennium Pharmaceuticals, Inc., priority 2005, dated 2011).

In this assay the target is T1, recombinant human NAE enzyme (Homo sapiens, UniProt Q8TBC4).
T1 construct: His (N); made in house; host or cells: Sf9 insect cells (baculovirus, Bac-to-Bac)
T1 sequence (Q8TBC4 1-463): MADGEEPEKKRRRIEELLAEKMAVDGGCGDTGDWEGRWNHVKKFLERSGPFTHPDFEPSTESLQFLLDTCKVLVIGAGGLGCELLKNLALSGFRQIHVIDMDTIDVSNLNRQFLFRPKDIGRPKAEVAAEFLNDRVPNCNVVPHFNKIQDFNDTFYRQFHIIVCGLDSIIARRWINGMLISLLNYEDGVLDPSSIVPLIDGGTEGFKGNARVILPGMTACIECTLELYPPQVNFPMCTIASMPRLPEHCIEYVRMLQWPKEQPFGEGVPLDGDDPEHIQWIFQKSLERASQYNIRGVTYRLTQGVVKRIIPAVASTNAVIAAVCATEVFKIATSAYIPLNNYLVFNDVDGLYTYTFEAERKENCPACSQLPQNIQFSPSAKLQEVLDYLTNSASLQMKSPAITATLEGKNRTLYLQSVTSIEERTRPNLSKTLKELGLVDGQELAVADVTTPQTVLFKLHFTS
T1 sequence (Q13564 1-534 partner): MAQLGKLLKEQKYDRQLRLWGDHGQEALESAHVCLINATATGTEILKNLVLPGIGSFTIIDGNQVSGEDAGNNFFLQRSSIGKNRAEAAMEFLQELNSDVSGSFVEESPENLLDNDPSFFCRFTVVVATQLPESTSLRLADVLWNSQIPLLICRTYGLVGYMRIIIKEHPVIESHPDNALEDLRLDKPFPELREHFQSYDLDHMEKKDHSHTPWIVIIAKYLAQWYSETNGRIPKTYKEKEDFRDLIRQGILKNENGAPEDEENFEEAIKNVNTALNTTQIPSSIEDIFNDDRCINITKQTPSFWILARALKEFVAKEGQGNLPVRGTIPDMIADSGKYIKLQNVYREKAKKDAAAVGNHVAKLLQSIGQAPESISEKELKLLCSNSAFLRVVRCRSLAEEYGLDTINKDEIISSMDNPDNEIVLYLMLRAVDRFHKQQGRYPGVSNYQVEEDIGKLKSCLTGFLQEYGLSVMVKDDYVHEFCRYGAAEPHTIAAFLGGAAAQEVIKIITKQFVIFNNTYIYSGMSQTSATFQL
As to the kind of experiment: Nedd8-Activating Enzyme (NAE) HTRF assay. Type of assay: biochemical. The conditions noted are these: 20 μM ATP, 90 minutes at 24° C. The method, then:
Following manufacturer instructions, baculoviruses were generated with the Bac-to-Bac Expression System (Invitrogen) for the following proteins: untagged NAEα (APPBP1; NP_003896.1), N-terminally His-tagged NAEβ (UBE1C; NP_003959.3), untagged SAEα (SAE1; NP_005491.1), N-terminally His-tagged SAEβ (UBA2; NP_005490.1), N-terminally His-tagged murine UAE (UBE1X; NP_033483). NAEα/His-NAEβ and SAEα/His-SAEβ complexes were generated by co-infection of Sf9 cells, which were harvested after 48 hours. His-mUAE was generated by single infection of Sf9 cells and harvested after 72 hours. Expressed proteins were purified by affinity chromatography (Ni-NTA agarose, Qiagen) using standard buffers.
Ubc12 (UBE2M; NP_003960.1), Ubc9 (UBE2I; NP_003336.1), Ubc2 (UBE2A; NP_003327.2) were subcloned into pGEX (Pharmacia) and expressed as N-terminally GST tagged fusion proteins in E. coli. Expressed proteins were purified by conventional affinity chromatography using standard buffers.
Nedd8 (NP_006147), Sumo-1 (NP_003343) and Ubiquitin (with optimized codons) were subcloned into pFLAG-2 (Sigma) and expressed as N-terminally Flag tagged fusion proteins in E. coli. Expressed proteins were purified by conventional chromatography using standard buffers.
Nedd8-Activating Enzyme (NAE) HTRF Assay.
The NAE enzymatic reaction totaled 50 μL and contained 50 mM HEPES (pH 7.5), 0.05% BSA, 5 mM MgCl2, 20 μM ATP, 250 μM GSH, 0.01 μM Ubc12-GST, 0.075 μM Nedd8-Flag and 0.28 nM recombinant human NAE enzyme. The enzymatic reaction mixture, with and without compound inhibitor, was incubated at 24° C. for 90 minutes in a 384-well plate before termination with 25 μL of Stop/Detection buffer (0.1M HEPES pH 7.5, 0.05% Tween20, 20 mM EDTA, 410 mM KF, 0.53 nM Europium-Cryptate labeled monoclonal anti-FLAG M2 antibody (CisBio International) and 8.125 μg/mL PHYCOLINK goat anti-GST allophycocyanin (XL-APC) antibody (Prozyme)). After incubation for 3 hours at 24° C., quantification of the FRET was performed on the Analyst™ HT 96.384 (Molecular Devices).

Where [1] appears, read: threshold less than or equal to 100 nM.
Setting [2] is: threshold less than or equal to 1 μM.

The term IC50 denotes the concentration that gives 50% inhibition. With `NS(=O)(=O)OC[C@H]1O[C@@H](n2cnc3c(N[C@H]4CCc5ccccc54)ncnc32)C[C@@H]1O` [Compound I-1, ((2R,3S,5R)-5-{6-[(1S)-2,3-dihydro-1H-inden-1-ylamino]-9H-purin-9-yl}-3-hydroxytetrahydrofuran-2-yl)methyl sulfamate], the IC50 was ≤ 100 nM under setting [1] and ≤ 1000 nM under setting [2].
As to `Cn1cc(CNc2ncnc3c2ncn3[C@@H]2O[C@H](CNS(N)(=O)=O)[C@@H](O)[C@H]2O)cn1` [Compound I-38, N-{[(2R,3S,4R,5R)-3,4-dihydroxy-5-(6-{[(1-methyl-1H-pyrazol-4-yl)methyl]-amino}-9H-purin-9-yl)tetrahydrofuran-2-yl]methyl}sulfamide], the IC50 under setting [2] is ≤ 1000 nM.
For `C[C@@H](OS(N)(=O)=O)[C@H]1O[C@@H](n2cnc3c(N[C@H]4CCc5ccccc54)ncnc32)[C@H](O)[C@@H]1O` [Compound I-58, (R)-1-((2S,3S,4R,5R)-5-(6-((S)-2,3-dihydro-1H-inden-1-ylamino)-9H-purin-9-yl)-3,4-dihydroxy-tetrahydrofuran-2-yl)ethyl sulfamate], the IC50 was ≤ 100 nM under setting [1] and ≤ 1000 nM under setting [2].
With `NS(=O)(=O)NC[C@H]1O[C@@H](n2cnc3c(NCc4ccc(F)cc4)ncnc32)[C@H](O)[C@@H]1O` [Compound I-126, N-[((2R,3S,4R,5R)-5-{6-[(4-fluorobenzyl)amino]-9H-purin-9-yl}-3,4-dihydroxytetrahydrofuran-2-yl)methyl]sulfamide], the IC50 is ≤ 100 nM under setting [1] and ≤ 1000 nM under setting [2].
On to `COCCc1ncnc2c1ncn2[C@@H]1O[C@H](COS(N)(=O)=O)[C@@H](O)[C@H]1O` [Compound I-137, {(2R,3S,4R,5R)-3,4-dihydroxy-5-[6-(2-methoxyethyl)-9H-purin-9-yl]tetrahydrofuran-2-yl}methyl sulfamate], for which the IC50 runs as follows: under setting [1], ≤ 100 nM; under setting [2], ≤ 1000 nM.
